Source: patent publication US7074765B2, “Synthetic peptide analogs of Arg-Pro-Pro-Gly-Phe as selective inhibitors of thrombin and thrombin activation of protease activated receptors 1 and 4” (The Regents of the University of Michigan, priority 2003, dated 2006)
Where “and” joins values, the source holds several entries; their conditions need not be identical. Equal values may be shown once. Square brackets hold non-standard residues; d marks the D form. Ends that are not written are not given here. Oic = O=C(O)[C@@H]1C[C@@H]2CCCC[C@@H]2N1; Igl = N[C@H](C(=O)O)C1Cc2ccccc2C1; Hyp = O=C(O)[C@@H]1C[C@@H](O)CN1; 2Thi = N[C@@H](Cc1cccs1)C(=O)O

What was measured:
PC-3 cells = assay: Thrombin-induced motility of prostate cancer cells (Boyden chamber); assay type: cell-based; details: 10 μM; 2 nM α-thrombin
Method: Motility assays are performed with a modified Boyden chamber (tissue culture-treated, 6.5 mm diameter, 10 μm thickness, 8 μm pores). In the motility assays, 2.5×10^4 cells are plated in the top chamber of non-coated polyethylene teraphthalate (PET) membranes (24-well insert, pore size […]; Becton Dickinson). […] RPMI 10% fetal bovine serum is used as a chemoattractant in the lower chamber. […] The cells that transverse the membranes are stained with Dip-Quick (Jorgensen Laboratories, Loveland, Colo.). Cells in five random fields of view at 200× are counted and expressed as the average number of cells/field of view. […]

[1] = molecular target: recombinant protease activated receptor 1 extracellular domain (rPAR1EC), human PAR1 Ala26-Ser99, His10-DDDDK fusion (human) (UniProt P25116); assay: cell-based or functional assay
[2] = tested on: normal human citrated plasma; assay: thrombin clotting time (TCT); assay type: biochemical; details: peptide at the concentration that inhibits platelet aggregation
Method: (§1) The influence of the various peptide formulations used in the present invention on established coagulation-based assays was determined. The activated partial thromboplastin time (APTT) is performed by mixing 0.05 ml normal human citrated plasma with 0.05 ml activated partial thromboplastin reagent purchased from Organon Teknika, Research Triangle Park, N.C. in the absence or presence of a peptide inhibitor. After incubation for 5 min at 37° C., the mixture is recalcified with 0.05 ml of 30 mM calcium chloride and the time to clot formation is measured in an Amelung KC4A instrument (Sigma Chemical Corp, St. Louis, Mo.) (Hasan et al. Thrombosis and Haemostasis. 82, 1182–1187 (1999)). The prothrombin time (PT) is performed by mixing 0.05 ml normal human citrated plasma with 0.05 ml Simplastin (Organon Teknika, Research Triangle Park, N.C.) followed by incubation for 3 min at 37° C. in the absence or presence of a peptide inhibitor. At the addition of 0.05 ml of 30 mM calcium chloride, the time to clot formation is measured in an KC4A instrument (Sigma Chemical Corp, St. Louis, Mo.) (Hasan et al. Thrombosis and Haemostasis. 82, 1182–1187 (1999)). The thrombin clotting time (TCT) is performed by adding 0.1 ml normal human citrated plasma in the absence or presence of a peptide inhibitor and 0.05 ml of a α-thrombin solution such that the final concentration of the thrombin in the entire mixture was 1 nM. Upon addition of the thrombin, the time to clot formation is measured in an KC4A instrument (Sigma Chemical Corp, St. Louis, Mo.). In FIG. 5, peptide TH146 produces a significant prolongation (p<0.05) of the activated partial thromboplastin time at 15 μM, of the prothrombin time at 60 μM, and the thrombin clotting time at 15 μM. In FIG. 6, peptide MAP4-TH146 produced a significant prolongation (p<0.05) of the activated partial thromboplastin time at 0.195 μM, of the prothrombin time at 3.125 μM, and the thrombin clotting time at 0.39 μM.

[3] = tested on: normal human citrated plasma; assay: prothrombin time (PT); assay type: biochemical; details: peptide at the concentration that inhibits platelet aggregation
Method: as §1

[4] = tested on: platelets in platelet-rich plasma; assay: γ-thrombin-induced platelet aggregation in platelet-rich plasma; assay type: cell-based, human; details: minimal concentration that blocked γ-thrombin-induced platelet aggregation in platelet-rich plasma
Method: Fresh whole blood was collected and mixed with 0.013 M sodium citrate and platelet-rich plasma was prepared according to the method of Meloni et al., J. Biol. Chem. 266, 6786 (1991). Platelet-rich plasma with a normalized platelet count between 2–2.5×10^8 platelets/ml was added to a cuvette of an aggregometer (Chronlog Corp., Havertown, Pa.), standardized using the protocol of Meloni et al., supra. Peptides to be examined were added to the cuvette and the mixture stabilized for a few moments. Once the baseline was stabilized, γ-thrombin (10–70 nM) (Haematologic Technologies, Essex Junction, Vt.) was added to determine the minimal concentration of the agonist necessary to achieve full platelet aggregation. All investigations with peptides were performed using threshold concentrations of γ-thrombin. Aggregation was allowed to proceed for 5 minutes before stopping. When ADP-induced platelet aggregation studies were performed, 1–5 μM ADP (Sigma) was added to the cuvette containing platelet-rich plasma.

[5] = tested on: normal human lung fibroblasts (NHLF); assay: α-thrombin-induced calcium mobilization in fibroblasts; assay type: cell-based; details: 0.1 mM peptide; α-thrombin-induced calcium mobilization in fibroblasts
Method: The second assay developed to assess peptides from the combinatorial libraries uses inhibition of α-thrombin-induced calcium mobilization in fibroblasts. Normal human lung fibroblasts (NHLF) were purchased from Clonetics, San Diego, Calif., an affiliate of Bio-Wittaker, Walkersville, Md. The cytoplasmic free Ca^2+ concentration ([Ca^2+]i) was measured using the fluorescent Ca^2+ indicator fura-2 (Molecular Probes, Inc., Eugene, Oreg.). Suspension of fibroblasts in Hepes-Tyrode's buffer were loaded with fura-2 by incubation at 37° C. with 2 μM fura-2/acetoxymethyl ester for 45 minutes according to the method of Rasmussen et al., J. Biol. Chem. 268, 14322 (1993). The labeled fibroblasts were separated from excess probe by washing by centrifugation at 1000 rpm (180×g). Aliquots of the labeled fibroblasts were transferred into a quartz cuvette with a magnetic stirrer, which was then placed in a thermostatically controlled chamber at 37° C. in a fluorescence spectrophotometer (Perkin-Elmer LS50B spectrofluorometer, Chicago, Ill.). Reagents, test peptide, and α-thrombin (0.25–2 nM), were sequentially added directly to the cuvette. The excitation wavelengths varied between 340 and 380 nm. Fluorescence was measured by recording emitted light at 510 nm as reported by Fisher et al., Mol Pharm. 35, 195 (1989). The minimum emission was determined on a solubilized fibroblast sample in the presence of 10 mM EDTA; maximum emission was determined on the same sample with 10 mM Ca^2+ added. The intrafibroblast free Ca^2+ concentration was calculated by the method of Grykiewicz et al., J. Biol. Chem. 260, 3440 (1985). […] The KD for fura-2 was assumed to be 224 nM. Rmax and Rmin are the maximum and minimum fluorescence ratios measured at the end of the experiment, respectively; Sf2 and Sb2 are the fluorescence values at 380 nm in the absence and presence of saturating [Ca^2+], respectively. The reaction was monitored for 3–5 minutes.

[6] = tested on: normal human citrated plasma; assay: activated partial thromboplastin time (APTT); assay type: biochemical; details: peptide at the concentration that inhibits platelet aggregation
Method: as §1

[7] = molecular target: T1, recombinant protease activated receptor 1 extracellular domain (rPAR1EC) (Homo sapiens, UniProt P25116); assay: Inhibition of RPPGF-biotin binding to rPAR1EC; details: 5 mM peptide, 50 μM RPPGF-biotin (FIG. 7); listed in decreasing order
T1 construct: A portion of the extracellular domain of human PAR1 (Ala^26-Ser^99) (rPAR1EC) was expressed in Escherichia coli; His10-DDDDK (pET19b) (N); made in house; host or cells: E. coli BL21(DE3), pET19b
T1 sequence (P25116 26-99): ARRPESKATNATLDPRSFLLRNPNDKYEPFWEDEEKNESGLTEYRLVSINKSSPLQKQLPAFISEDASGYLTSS

α-thrombin = α-thrombin (Homo sapiens, UniProt P00734); assay: cell-based or functional assay
thrombin = thrombin (Homo sapiens, UniProt P00734); details: read-out: Ki (direct inhibitor of thrombin); cited from earlier work
[8] = tested on: T2, RPPGF (Arg-Pro-Pro-Gly-Phe, SEQ ID NO:4)
T2 sequence: RPPGF

[9] = tested on: MAP4-rOicPGF (β-Ala-Lys-2Lys-4(D-Arg-Oic-Pro-Gly-Phe))
[10] = tested on: MAP4-RPPGF (β-Ala-Lys-2Lys-4(Arg-Pro-Pro-Gly-Phe))
[11] = molecular target: human α-thrombin (human), P00734; assay: cell-based or functional assay
[12] = molecular target: T3, recombinant protease activated receptor 1 extracellular domain (rPAR1EC), human PAR1 Ala26-Ser99, His10-DDDDK fusion (human), P25116; assay: cell-based or functional assay
T3 chain: T1 sequence (P25116 26-99)

Molecule: hirudin [reference compound]
- effect on thrombin-induced PC-3 cell motility (PC-3 cells): block

Molecule: MAP4-RPPGF (β-Ala-Lys-2Lys-4(Arg-Pro-Pro-Gly-Phe)) (peptide)
- inhibition of thrombocytin cleavage of PAR1 (rPAR1EC, SDS-PAGE) [1]: 0.2 mM and 0.5 mM

Molecule: D-Arg-Oic-Oic-Gly-Idg [rOicOicGIdg]
- TCT (Fold Prolongation over RPPGF) [2]: 1.1 Fold
- PT (Fold Prolongation over RPPGF) [3]: 1.1 Fold
- Concentration of Peptide [mM] That Gives 100% Inhibition [4]: 0.257 mM
- Ca^2^+ % Inhibition At 0.1 mM Peptide [5]: 28.1%
- APTT (Fold Prolongation over RPPGF) [6]: 1.1 Fold

Molecule: D-Arg-Oic-Pro-Gly-Idg ([dR][Oic]PG[Igl]-NH2; N-terminus assumed; SMILES N=C(N)NCCC[C@@H](N)C(=O)N1[C@H](C(=O)N2CCC[C@H]2C(=O)NCC(=O)N[C@H](C(N)=O)C2Cc3ccccc3C2)C[C@@H]2CCCC[C@@H]21) [rOicPGIdg]
- TCT (Fold Prolongation over RPPGF) [2]: 1.5 Fold
- blocking of RPPGF-biotin binding to rPAR1EC by peptides [7]: blocked
- PT (Fold Prolongation over RPPGF) [3]: 1.1 Fold
- Concentration of Peptide [mM] That Gives 100% Inhibition [4]: 0.129 mM
- Ca^2^+ % Inhibition At 0.1 mM Peptide [5]: 36.2%
- APTT (Fold Prolongation over RPPGF) [6]: 1.1 Fold

Molecule: [dR][Oic][Oic]G[2Thi] [rOicOicGThi]
- TCT (Fold Prolongation over RPPGF) [2]: 1.1 Fold
- PT (Fold Prolongation over RPPGF) [3]: 1.1 Fold
- Concentration of Peptide [mM] That Gives 100% Inhibition [4]: 0.271 mM
- Ca^2^+ % Inhibition At 0.1 mM Peptide [5]: 18.2%
- APTT (Fold Prolongation over RPPGF) [6]: 1.2 Fold

Molecule: D-Arg-Oic-Hyp-Gly-Idg [rOicHypGIdg]
- TCT (Fold Prolongation over RPPGF) [2]: 1.7 Fold
- PT (Fold Prolongation over RPPGF) [3]: 1.1 Fold
- Concentration of Peptide [mM] That Gives 100% Inhibition [4]: 0.157 mM
- Ca^2^+ % Inhibition At 0.1 mM Peptide [5]: 36.7%
- APTT (Fold Prolongation over RPPGF) [6]: 1.1 Fold

Molecule: MAP4-rOicPGF (β-Ala-Lys-2Lys-4(D-Arg-Oic-Pro-Gly-Phe)) (peptide)
- concentration giving significant prolongation (p<0.05) of the APTT of normal human plasma (α-thrombin): 0.195 µM
- concentration giving significant prolongation (p<0.05) of the PT of normal human plasma (α-thrombin): 3.12 µM
- concentration giving significant prolongation (p<0.05) of the TCT of normal human plasma (α-thrombin): 0.39 µM
- inhibition of thrombocytin-induced cleavage of recombinant extracellular domain of human PAR1 (SDS-PAGE) [1]: 0.2 mM

Molecule: D-Arg-Idg-Tic-Gly-Phe [rIdgTicGF]
- TCT (Fold Prolongation over RPPGF) [2]: 1.2 Fold
- PT (Fold Prolongation over RPPGF) [3]: 1.1 Fold
- Concentration of Peptide [mM] That Gives 100% Inhibition [4]: 0.1 mM
- Ca^2^+ % Inhibition At 0.1 mM Peptide [5]: 58.44%
- APTT (Fold Prolongation over RPPGF) [6]: 1.0 Fold

Molecule: D-Arg-Oic-Hyp-Gly-Idg [TH37]
- blocking of RPPGF-biotin binding to rPAR1EC by peptides [7]: blocked

Molecule: [dR][Oic][Hyp]G[2Thi] [rOicHypGThi]
- TCT (Fold Prolongation over RPPGF) [2]: 1.3 Fold
- PT (Fold Prolongation over RPPGF) [3]: 1.1 Fold
- Concentration of Peptide [mM] That Gives 100% Inhibition [4]: 0.157 mM
- Ca^2^+ % Inhibition At 0.1 mM Peptide [5]: 38%
- APTT (Fold Prolongation over RPPGF) [6]: 1.1 Fold

Molecule: RPPGFSPFR [Bradykinin, Arg-Pro-Pro-Gly-Phe-Ser-Pro-Phe-Arg]
- Ki (thrombin): 170 to 326 µM

Molecule: thrombocytin
- thrombocytin (16.7 nM) hydrolysis of 1 mM H-D-Phe-Pip-Arg-paranitroanilide in the presence of 2 mM RPPGF [8]: RPPGF (SEQ ID NO:4) or MAP4-RPPGF inhibits the ability of these enzymes to hydrolyze their substrates
- thrombocytin (16.7 nM) hydrolysis of 1 mM H-D-Phe-Pip-Arg-paranitroanilide (S2238), 0-1.0 mM MAP4-TH146 [9]: MAP4-TH146 inhibits these enzymes' ability to hydrolyze their substrates
- thrombocytin (16.7 nM) hydrolysis of 1 mM H-D-Phe-Pip-Arg-paranitroanilide in the presence of 1 mM MAP4-RPPGF [10]: RPPGF (SEQ ID NO:4) or MAP4-RPPGF inhibits the ability of these enzymes to hydrolyze their substrates

Molecule: [dR][Oic]PGF [rOicPGF (D-Arg-Oic-Pro-Gly-Phe)]
- concentration giving significant prolongation (p<0.05) of the activated partial thromboplastin time [11]: 15 µM
- concentration giving significant prolongation (p<0.05) of the prothrombin time [11]: 60 µM
- concentration giving significant prolongation (p<0.05) of the thrombin clotting time [11]: 15 µM
- concentration giving significant prolongation of the APTT of normal human plasma [11]: 3.7 µM
- concentration giving significant prolongation of the PT of normal human plasma [11]: 30 µM
- concentration giving significant prolongation of the TCT of normal human plasma [11]: 3.7 µM

Molecule: RPPGF (modifications not checked) [RPPGF (Arg-Pro-Pro-Gly-Phe, SEQ ID NO:4)]
- inhibition of thrombocytin cleavage of recombinant human PAR1 extracellular domain (SDS-PAGE) [12]: 0.5 mM and 1 mM
